Legend:
Conditions in all cases: 72 h
[1] = tested on: Caco-2; assay: relative viability EC50 (midpoint between 100% and the lowest measured viability); higher = less toxic
[2] = tested on: HepG2; assay: as above
[3] = tested on: U2OS; assay: as above
[4] = tested on: Calu-3; assay: as above
[5] = tested on: Vero E6; assay: as above
[6] = tested on: Caco-2; assay: drug sensitivity score (DSS) for viability; higher = more toxic; extreme values may be limits of the assay
[7] = tested on: HepG2; assay: as above
[8] = tested on: U2OS; assay: as above
[9] = tested on: Calu-3; assay: as above
[10] = tested on: Vero E6; assay: as above
[11] = tested on: Caco-2; assay: cell viability relative to DMSO; higher = less toxic
[12] = tested on: HepG2; assay: as above
[13] = tested on: U2OS; assay: as above
[14] = tested on: Calu-3; assay: as above
[15] = tested on: Vero E6; assay: as above

Structure (SMILES)	relative viability EC50 [1] [µM]	relative viability EC50 [2] [µM]	relative viability EC50 [3] [µM]	relative viability EC50 [4] [µM]	relative viability EC50 [5] [µM]	drug sensitivity score [6]	drug sensitivity score [7]	drug sensitivity score [8]	drug sensitivity score [9]	drug sensitivity score [10]	cell viability ([11]; 1 nM) [%]	cell viability ([11]; 10 nM) [%]	cell viability ([11]; 100 nM) [%]	cell viability ([11]; 1000 nM) [%]	cell viability ([11]; 10000 nM) [%]	cell viability ([12]; 1 nM) [%]	cell viability ([12]; 10 nM) [%]	cell viability ([12]; 100 nM) [%]	cell viability ([12]; 1000 nM) [%]	cell viability ([12]; 10000 nM) [%]	cell viability ([13]; 1 nM) [%]	cell viability ([13]; 10 nM) [%]	cell viability ([13]; 100 nM) [%]	cell viability ([13]; 1000 nM) [%]	cell viability ([13]; 10000 nM) [%]	cell viability ([14]; 1 nM) [%]	cell viability ([14]; 10 nM) [%]	cell viability ([14]; 100 nM) [%]	cell viability ([14]; 1000 nM) [%]	cell viability ([14]; 10000 nM) [%]	cell viability ([15]; 1 nM) [%]	cell viability ([15]; 10 nM) [%]	cell viability ([15]; 100 nM) [%]	cell viability ([15]; 1000 nM) [%]	cell viability ([15]; 10000 nM) [%]
CN(C(=O)/C=C/c1ccoc1)[C@@H]1CC[C@@]2(O)[C@H]3Cc4ccc(O)c5c4[C@@]2(CCN3CC2CC2)[C@H]1O5 [nalfurafine]	> 10	> 10	> 10	> 10	> 10	0	0	0	0	0	104	92.9	99	107	104	102	104	95.5	97.7	102	100	99.8	100	103	105	92.2	103	106	96.8	91.3	90.6	101	89.5	95.6	102
Nc1ncnc2c1ncn2[C@@H]1O[C@@H]2COP(=O)(O)O[C@H]2[C@H]1O [cyclic-AMP]	> 10	> 10	> 10	> 10	> 10	0	0	0	0	0	89.8	93	94.5	93.5	95.9	97.7	100	89.5	102	92.2	103	103	96.1	102	99.6	100	107	103	111	95.5	102	98.6	93.9	102	98.9
CCCCCC(O)CCCC(=O)O (stereo not given)	> 10	> 10	> 10	> 10	> 10	0.5	0	0	0	0	95.3	79	82.1	93.7	101	90.7	95.5	85.8	98.5	92.5	98.1	97.8	100	95.8	102	98.6	103	101	95.9	99.4	86.1	102	95.1	95.3	90.2
O=C1NCCNC1c1cccs1 (stereo not given) [tenilsetam]	> 10	> 10	> 10	> 10	> 10	0	0	0	0	0	105	95.1	103	97.5	97.4	106	106	96.4	97.2	92.3	103	96.3	104	96.2	102	92.3	98.2	100	97.1	99.1	97.2	103	90.1	97.7	101
O=C(O)CNC(=O)c1c(O)c2ccccc2n(Cc2ccccc2)c1=O [IOX2]	> 10	> 10	> 10	> 10	> 10	0	0	0	0	0	95.4	97.1	92	102	93.2	108	106	108	93.9	106	96.2	102	94.8	98.5	95.6	87	88	85.8	96	87.4	104	99.7	102	106	98.4
Cc1nn(-c2ccccc2)c(C)c1/C=N/N1CCN(Cc2ccccc2)CC1 [SANT-1]	> 10	> 10	> 10	> 10	> 10	0	0	0	0.2	0	105	102	99.2	94	104	87.1	92.3	87	99.7	74.1	105	98.3	102	99.5	102	98.6	93.8	93.1	81.7	94.3	98.1	99.7	94.6	102	106
COc1ccc(CCN(C)CCCC(C#N)(c2cc(OC)c(OC)c(OC)c2)C(C)C)cc1OC (stereo not given) [gallopamil]	> 10	> 10	> 10	> 10	> 10	0	0	0	0	0	91.3	91.5	92.1	91.6	96	96.8	103	98.3	101	106	94	99.7	96.4	97.3	99.3	94.1	104	97	92.2	104	101	97.3	96.9	102	106

Reference: the supplement of paper PMC13380429
